Test results taken from patent US12186425B2, “Devices and methods for reducing cystine crystals in vivo” (University of Florida Research Foundation, Inc., priority 2017, dated 2025).
In brackets after ≈: the same amount, converted by molar mass.

Legend:
[1] = rabbit, in vivo; cited from earlier work
[2] = Solubility of cystine; type: physicochemical; details: phosphate buffered saline, aqueous buffer; read-out: saturated solution of cystine
[3] = reported; cited from earlier work

NCCS [cysteamine, β-mercaptoethylamine]
eye drop concentration above which toxicity occurred [1]: > 0.55%

N[C@@H](CSSC[C@H](N)C(=O)O)C(=O)O [cystine]
solubility thermodynamic [2]: 110 µg/mL (≈ 458 µM)

CC(C)(C)NC[C@H](O)COc1nsnc1N1CCOCC1 [timolol]
epithelium permeability [3]: 1.2×10^−7 m/s
